In brackets after ≈: the same amount, converted by molar mass.

One assay concerns HL-60. Nature of the assay: Cytotoxicity against human HL60 cells. The format is functional, cell-based.
A further assay relates to Bacillus subtilis. Briefly: Antimicrobial activity against Bacillus subtilis NBRC 3134. Format: functional.

For the compound `CCCCCC[C@H]1C(=O)O[C@H](C)[C@H](NC(=O)c2cccc(NC=O)c2O)C(=O)O[C@@H](C)[C@@H]1OC(=O)CC(C)C` [ANTIMYCIN A], the IC50 – broadly, the concentration that gives 50% inhibition – in the assay on HL-60 was determined as 45 µM.

For the compound `C[C@@H]1Cc2c(c(O)c3c(=O)cc4oc5c(O)cc(O[C@@H]6O[C@H](CO)[C@@H](O)[C@H](O)[C@H]6O)c6c(=O)c7c8c(c56)c4c3c2O[C@@]8(O)[C@@H](C)O[C@@H]7C)[C@@H](C)O1` [VIRIDAPHIN A1 GLUCOSIDE], in the assay with Bacillus subtilis, the minimum inhibitory concentration (MIC) (commonly the least concentration at which growth counts as inhibited) turned out to be 10 µg/mL (≈ 14.2 µM). In the assay on HL-60, this compound came in with an IC50 of 23 µM.

Values taken from ChEMBL document CHEMBL1817637, “Viridaphin A₁ glucoside, a green pigment possessing cytotoxic and antibacterial activity from the aphid Megoura crassicauda” (J Nat Prod, 2011).
